Experimental data: patent publication US11965201B2, “Arginine supplementation to improve efficiency in gas fermenting acetogens” (LanzaTech NZ, Inc., priority 2015, dated 2024)

What was measured:
Type in all cases: cell-based, Clostridium autoethanogenum
[1] = system: C. autoethanogenum DSM10061; assay: Continuous biomass monitoring with BugLab device in serum bottle; conditions: before arginine depletion
Description: As the initial fast growth was unexpected, only a couple of samples could be used for calculating tD. Thus, a BugLab biomass monitoring device was attached to a serum bottle on 4AA medium to continuously monitor the increase of biomass before arginine is depleted from the medium. This experiment confirmed the fast growth on 4AAs before arginine depletion as tD was calculated to be ˜2 h (FIG. 10).
To obtain a more accurate value of tD on Arginine medium, a BugLab experiment was performed to continuously monitor the increase of biomass before arginine runs out. This experiment confirmed the fast growth before arginine runs out as tD was calculated to be ˜3 h (FIG. 14).

[2] = system: C. autoethanogenum DSM10061; assay: Heterotrophic batch growth in YE-free PETC-MES media with amino acid formulations + fructose (OD600)
Text: YE-free PETC-MES media was supplemented with various amino acid formulations—20AA, 7AA, 8AA, 14AA, 12AA, 4AA and Arginine (Table 2)—to identify if any amino acids are supporting growth. Solutions were filter sterilized and made anoxic by sparging N2.
First, a 20AA medium was designed based on the biomass amino acid composition of Clostridium acetobutylicum (Lee et al. 2008) with final amino acid concentrations theoretically supporting production of 1 gDCW/L of biomass.
Growth studies were carried out in batch cultivations in a volume of 50 mL media in 125 mL serum bottles with nitrogen in the headspace under shaking (unless otherwise noted) at 37° C. Optical density (OD) was measured at 600 nm with the reading ˜0.5 outside the anaerobic chamber against fully oxidized medium as reference.

[3] = system: C. autoethanogenum DSM 23693; assay: Autotrophic growth and acetate production on CO/CO2/H2 gas mix with arginine supplementation; conditions: for decrease of doubling time by arginine supplementation: vs control without arginine
Description: Growth was carried out in PETC-MES medium without yeast extract (Table 1) using standard anaerobic techniques (Hungate, Meth Microbiol, 3B: 117-132, 1969; Wolfe, Adv Microb Physiol, 6: 107-146, 1971) and 22 psi of CO/CO2/H2 gas mix (composition: 50% CO, 20% CO2, […], 28% N2) headspace pressure.
To study effect of supplementation with arginine, 5 g/L of arginine was added to the media and culture growth and metabolite production during autotrophic growth was compared to the control without arginine.
Growth was followed by measuring the optical density using a Thermo Genesys 20 spectrophotometer. […] Samples were prepared by diluting 400 μL with 100 μL of 5-sulfosalicylic acid solution (1% w/v in 1 M sulphuric acid), followed by a 3 minute centrifugation at 14,000 rpm; the supernatant was transferred to a glass vial for analysis. Separation was carried out with a 10 μL injection on to an Alltech IOA-2000 column (150 mm×6.5 mm×8 μm) at 0.7 mL/min and 65° C. under isocratic conditions, using 5 mM sulphuric acid mobile phase.
The experiment was carried out in two biological repeats with triplicate cultures (n=3) for each condition in a volume of 40 mL media in 1 L Schott bottles at 37° C. with orbital shaking (120 rpm, shake orbit). In each case, acetogenic strain C. autoethanogenum DSM 23693 was pre-cultured in PETC-MES without yeast extract to an OD600 nm of 0.3 and a single preculture was used for inoculation.
In the first experiment to the following conditions: PETC-MES without yeast extract+22 psi syngas (initial OD600 nm=0.005) and PETC-MES without yeast extract+22 psi syngas+5 g arginine/L (initial OD600 nm=0.005).
In the repeat of the experiment, a culture was also inoculated into arginine supplemented media but without the addition of CO/CO2/H2 gas (22 psi of 100% N2 as headspace). This experiment comprised the following three conditions: PETC-MES without yeast extract+22 psi syngas (initial OD600 nm=[…]), PETC-MES without yeast extract+22 psi syngas+5 g arginine/L (initial OD600 nm=0.003), and PETC-MES without yeast extract+5 g arginine/L (initial OD600 nm=0.003).

N=C(N)NCCC[C@H](N)C(=O)O [arginine]
doubling time tD (BugLab) [1]: ~3 h | specific growth rate (BugLab) [1]: 0.21 h⁻¹ | doubling time tD in second stage after arginine depletion ([2]; 5 g arginine/L + 5 g fructose/L): ~40 h | growth faster compared to supplementation with yeast extract ([2]; vs 1 g/L yeast extract): ~3 fold | growth on arginine without CO/CO2/H2 gas ([3]; 5 g arginine/L, N2 headspace, 48 hours): no growth observed | net acetate production ([3]; 5 g arginine/L, until pause in growth at OD600≈0.8): no net acetate production was observed | doubling time tD ([3]; autotrophic, 5 g/L arginine, 22 psi CO/CO2/H2, until OD600≈0.8): 3.5 h | specific growth rate μ ([3]; autotrophic, 5 g/L arginine, until OD600≈0.8): 0.198 | decrease of doubling time by arginine supplementation [3]: 52% | decrease of doubling time by arginine supplementation ([3]; listed as Arginine): over 50%
